Results taken from ChEMBL document CHEMBL4602617, “Discovery and optimization of heteroaryl piperazines as potent and selective PI3Kδ inhibitors” (Bioorg Med Chem Lett, 2020).

Key:
[1] = target: Leucine-rich repeat serine/threonine-protein kinase 2 (Homo sapiens, UniProt Q5S007, G2019S); test: Inhibition of recombinant human GST-tagged LRRK2 G2019S mutant catalytic domain (970 to 2527 residues) expressed in baculovirus expression system using LRRKtide as substrate measured after 1 hr in presence of ATP by ADAPTA assay
[2] = target: Phosphatidylinositol 4-phosphate 3-kinase C2 domain-containing subunit alpha (Homo sapiens, UniProt O00443); test: Inhibition of recombinant full length human N-terminal GST-tagged PIK3C2alpha catalytic domain expressed in baculovirus expression system using PI lipid as substrate incubated for 60 mins in presence of ATP by Adapta assay
[3] = target: Glucocorticoid receptor (Homo sapiens) (UniProt P04150); test: Displacement of [3H]dexamethasone from full length human recombinant glucocorticoid receptor expressed in insect cells at 10 uM incubated for 24 hrs by radiometric scintillation analysis relative to control
[4] = target: Casein kinase II subunit alpha' (Homo sapiens, UniProt P19784); test: Inhibition of recombinant human full-length GST-tagged CSNK2A2 expressed in baculovirus expression system using FRET-labeled Ser/Thr 11 peptide as substrate measured after 1 hr in presence of ATP by Z'-lyte assay
[5] = target: Tyrosine-protein kinase ITK/TSK (Homo sapiens, UniProt Q08881); test: Inhibition of recombinant full length human GST-tagged ITK expressed in baculovirus expression system using tyrosine-1 peptide as substrate incubated for 60 mins in presence of ATP by Z'-LYTE assay
[6] = target: Dual specificity tyrosine-phosphorylation-regulated kinase 1B (Homo sapiens, UniProt Q9Y463); test: Inhibition of recombinant full length human GST-tagged DYRK1B expressed in baculovirus expression system using serine/threonine-18 peptide as substrate incubated for 60 mins in presence of ATP by Z'-LYTE assay
[7] = target: Calcium/calmodulin-dependent protein kinase type II subunit alpha (Homo sapiens, UniProt Q9UQM7); test: Inhibition of recombinant full length human His-tagged CAMK2alpha expressed in baculovirus expression system using serine/threonine-4 peptide as substrate incubated for 60 mins in presence of ATP by Z'-LYTE assay
[8] = target: Ribosomal protein S6 kinase alpha-5 (Homo sapiens, UniProt O75582); test: Inhibition of recombinant full length human GST-tagged RPS6KA5 expressed in baculovirus expression system using ser/Thr01 peptide as substrate incubated for 60 mins in presence of ATP by Z'-LYTE assay
[9] = target: Calcium/calmodulin-dependent protein kinase type 1 (Homo sapiens, UniProt Q14012); test: Inhibition of full length human CAMK1 alpha expressed in baculovirus expression system using ZIPtide as substrate after 1 hr in presence of ATP by TR-FRET based assay
[10] = target: Mitogen-activated protein kinase 10 (Homo sapiens, UniProt P53779); test: Inhibition of recombinant full length N-terminal GST-tagged human JNK3 expressed in baculovirus expression system using Ser/Thr-04 peptide as substrate after 1 hr in presence of ATP by Z'LYTE assay
[11] = target: Tyrosine-protein kinase Fyn (Homo sapiens, UniProt P06241); test: Inhibition of recombinant full length C-terminal His-tagged human FYN cytoplasmic domain expressed in baculovirus expression system using fluorophore-labeled tyrosine-2 peptide as substrate after 1 hr in presence of ATP by Z'-Lyte assay
Homo sapiens [12] = organism: Homo sapiens; test: Selectivity index, ratio IC50 for inhibition of recombinant human full-length N-terminal His6-tagged p110alpha/untagged full-length p85alpha expressed in baculovirus infected Sf21 cells to ratio IC50 for inhibition of recombinant human full-length N-terminal GST-tagged p110delta/untagged full-length p85alpha expressed in baculovirus infected Sf21 cells
[13] = target: Platelet-derived growth factor receptor alpha (Homo sapiens, UniProt P16234, V561D); test: Inhibition of recombinant human GST-tagged PDGFRalpha V561D mutant cytoplasmic domain expressed in baculovirus expression system using tyrosine-4 peptide as substrate incubated for 60 mins in presence of ATP by Z'-LYTE assay
Homo sapiens [14] = organism: Homo sapiens; test: Inhibition of human nicotinic acetylcholine receptor at 10 uM relative to control
[15] = target: Mitogen-activated protein kinase 3 (Homo sapiens, UniProt P27361); test: Inhibition of recombinant full-length human ERK1 expressed in Escherichia coli at 10 uM using MBP as substrate after 30 mins by radiometric scintillation analysis relative to control
Rattus norvegicus = organism: Rattus norvegicus; test: Inhibition of rat kainate receptor at 10 uM relative to control
[16] = target: Beta-2 adrenergic receptor (Homo sapiens) (UniProt P07550); test: Displacement of [3H]CGP-12177 from full-length recombinant human beta2 adrenergic receptor expressed in CHO cells co-expressing NBR1 at 10 uM measured after 60 mins by scintillation counting method relative to control; format: cell-based
Ephrin type-A receptor 5 = Ephrin type-A receptor 5 (Homo sapiens, UniProt P54756); test: Inhibition of recombinant human GST-tagged EPHA5 cytoplasmic domain expressed in baculovirus expression system using tyrosine-01 peptide as substrate incubated for 60 mins in presence of ATP by Z'-Lyte assay
[17] = target: Tyrosine-protein kinase Mer (Homo sapiens, UniProt Q12866); test: Inhibition of recombinant human GST-tagged MER (578 to 872 residues) expressed in baculovirus expression system using tyrosine-2 peptide as substrate incubated for 60 mins in presence of ATP by Z'-LYTE assay
[18] = target: Receptor tyrosine-protein kinase erbB-2 (Homo sapiens, UniProt P04626); test: Inhibition of human recombinant ERBB2 (537 to 636 residues) expressed in Escherichia coli using Tyr 06 as substrate after 1 hr in presence of ATP by Z'-LYTE assay
[19] = target: Substance-K receptor (Homo sapiens) (UniProt P21452); test: Inhibition of human NK2 receptor at 10 uM relative to control
[20] = target: Protein-tyrosine kinase 6 (Homo sapiens, UniProt Q13882); test: Inhibition of recombinant full length human His-tagged BRK expressed in baculovirus expression system using tyr01 peptide as substrate incubated for 60 mins in presence of ATP by Z'-LYTE assay
[21] = target: Protein kinase C delta type (Homo sapiens, UniProt Q05655); test: Inhibition of recombinant full length human GST-tagged PRKCD expressed in insect expression system using serine/threonine-7 peptide as substrate incubated for 60 mins in presence of ATP by Z'-LYTE assay
[22] = target: Serine/threonine-protein kinase MRCK beta (Homo sapiens, UniProt Q9Y5S2); test: Inhibition of recombinant human His-tagged MRCKB catalytic domain expressed in baculovirus expression system using serine/threonine-13 peptide as substrate incubated for 60 mins in presence of ATP by Z'-LYTE assay
[23] = target: Tyrosine-protein kinase Lyn (Homo sapiens, UniProt P07948); test: Inhibition of recombinant full length human His-tagged LYN-A expressed in baculovirus expression system using tyrosine-2 peptide as substrate incubated for 60 mins in presence of ATP by Z'-LYTE assay

Beta-2 adrenergic receptor (Homo sapiens), sequence (P07550 whole entry, looked up, the tested form may be a part): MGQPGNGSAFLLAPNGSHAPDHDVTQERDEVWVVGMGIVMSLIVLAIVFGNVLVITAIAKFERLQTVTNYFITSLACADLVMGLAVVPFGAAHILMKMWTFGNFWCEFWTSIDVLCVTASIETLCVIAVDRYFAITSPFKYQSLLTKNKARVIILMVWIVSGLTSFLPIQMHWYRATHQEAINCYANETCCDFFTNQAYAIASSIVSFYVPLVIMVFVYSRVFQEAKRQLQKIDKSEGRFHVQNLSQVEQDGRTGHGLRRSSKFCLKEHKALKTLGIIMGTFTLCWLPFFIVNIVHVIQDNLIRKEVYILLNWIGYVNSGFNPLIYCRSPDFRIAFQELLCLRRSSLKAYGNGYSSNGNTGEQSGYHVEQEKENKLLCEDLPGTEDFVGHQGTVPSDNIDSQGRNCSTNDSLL
Mitogen-activated protein kinase 3, sequence (P27361 whole entry): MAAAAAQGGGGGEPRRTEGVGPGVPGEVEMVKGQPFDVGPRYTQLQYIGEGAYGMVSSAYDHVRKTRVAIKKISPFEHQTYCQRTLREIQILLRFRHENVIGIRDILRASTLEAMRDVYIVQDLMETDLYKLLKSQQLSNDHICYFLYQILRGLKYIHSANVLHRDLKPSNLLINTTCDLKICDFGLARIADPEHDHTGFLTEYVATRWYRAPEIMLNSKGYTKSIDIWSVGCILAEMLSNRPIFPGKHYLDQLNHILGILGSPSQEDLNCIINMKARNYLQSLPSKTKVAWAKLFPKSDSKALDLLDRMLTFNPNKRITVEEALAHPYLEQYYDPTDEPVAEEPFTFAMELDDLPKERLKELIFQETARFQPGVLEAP
Protein kinase C delta type, sequence (Q05655 whole entry, the tested form may be a part): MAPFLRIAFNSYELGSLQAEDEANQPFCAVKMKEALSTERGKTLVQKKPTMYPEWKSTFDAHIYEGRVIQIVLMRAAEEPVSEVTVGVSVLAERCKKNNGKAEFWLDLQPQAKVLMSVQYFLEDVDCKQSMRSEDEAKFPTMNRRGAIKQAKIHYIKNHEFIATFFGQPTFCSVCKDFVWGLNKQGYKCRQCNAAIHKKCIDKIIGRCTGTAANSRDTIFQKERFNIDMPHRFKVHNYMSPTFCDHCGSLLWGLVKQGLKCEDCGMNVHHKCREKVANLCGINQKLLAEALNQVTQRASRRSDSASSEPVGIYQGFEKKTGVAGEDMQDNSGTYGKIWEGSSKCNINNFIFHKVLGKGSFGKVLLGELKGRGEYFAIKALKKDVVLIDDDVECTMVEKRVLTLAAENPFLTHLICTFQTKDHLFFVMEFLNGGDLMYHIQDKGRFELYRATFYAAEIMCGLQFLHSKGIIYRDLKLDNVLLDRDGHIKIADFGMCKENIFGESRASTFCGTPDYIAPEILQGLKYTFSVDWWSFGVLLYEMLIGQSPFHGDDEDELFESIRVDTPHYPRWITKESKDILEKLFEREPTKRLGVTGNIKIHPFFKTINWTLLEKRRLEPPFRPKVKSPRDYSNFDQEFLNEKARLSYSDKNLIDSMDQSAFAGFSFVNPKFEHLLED
Tyrosine-protein kinase Fyn, sequence (P06241 whole entry, the tested form may be a part): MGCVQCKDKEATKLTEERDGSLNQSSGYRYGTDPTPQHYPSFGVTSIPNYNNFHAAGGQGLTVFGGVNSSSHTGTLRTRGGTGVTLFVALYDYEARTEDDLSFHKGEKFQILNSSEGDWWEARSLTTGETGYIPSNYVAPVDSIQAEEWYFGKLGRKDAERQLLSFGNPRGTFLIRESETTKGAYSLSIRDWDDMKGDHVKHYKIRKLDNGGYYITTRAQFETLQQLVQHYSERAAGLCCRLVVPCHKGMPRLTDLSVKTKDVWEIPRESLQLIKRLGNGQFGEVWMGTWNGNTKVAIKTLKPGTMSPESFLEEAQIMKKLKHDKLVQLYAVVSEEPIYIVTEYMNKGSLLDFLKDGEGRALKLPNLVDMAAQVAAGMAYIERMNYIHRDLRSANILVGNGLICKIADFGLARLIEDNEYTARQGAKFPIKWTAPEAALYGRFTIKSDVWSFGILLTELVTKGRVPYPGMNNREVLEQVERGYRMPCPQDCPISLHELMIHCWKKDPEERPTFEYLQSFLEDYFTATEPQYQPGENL
Dual specificity tyrosine-phosphorylation-regulated kinase 1B, sequence (Q9Y463 whole entry): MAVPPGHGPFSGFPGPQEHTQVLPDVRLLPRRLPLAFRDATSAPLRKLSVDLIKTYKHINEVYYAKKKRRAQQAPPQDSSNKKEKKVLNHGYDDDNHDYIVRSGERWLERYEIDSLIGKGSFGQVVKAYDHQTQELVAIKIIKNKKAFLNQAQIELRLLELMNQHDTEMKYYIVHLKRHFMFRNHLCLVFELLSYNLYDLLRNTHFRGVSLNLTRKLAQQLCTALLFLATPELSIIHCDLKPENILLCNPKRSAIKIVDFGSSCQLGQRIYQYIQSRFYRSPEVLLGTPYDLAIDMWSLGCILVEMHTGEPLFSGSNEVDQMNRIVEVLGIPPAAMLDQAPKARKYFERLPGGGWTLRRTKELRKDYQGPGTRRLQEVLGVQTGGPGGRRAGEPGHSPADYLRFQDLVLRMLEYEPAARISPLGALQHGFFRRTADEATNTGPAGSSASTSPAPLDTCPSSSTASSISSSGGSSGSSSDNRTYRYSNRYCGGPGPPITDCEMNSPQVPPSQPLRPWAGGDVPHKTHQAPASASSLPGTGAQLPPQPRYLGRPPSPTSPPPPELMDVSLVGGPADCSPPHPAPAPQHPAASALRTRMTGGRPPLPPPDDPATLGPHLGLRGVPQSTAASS
Serine/threonine-protein kinase MRCK beta, sequence (Q9Y5S2 whole entry, the tested form may be a part): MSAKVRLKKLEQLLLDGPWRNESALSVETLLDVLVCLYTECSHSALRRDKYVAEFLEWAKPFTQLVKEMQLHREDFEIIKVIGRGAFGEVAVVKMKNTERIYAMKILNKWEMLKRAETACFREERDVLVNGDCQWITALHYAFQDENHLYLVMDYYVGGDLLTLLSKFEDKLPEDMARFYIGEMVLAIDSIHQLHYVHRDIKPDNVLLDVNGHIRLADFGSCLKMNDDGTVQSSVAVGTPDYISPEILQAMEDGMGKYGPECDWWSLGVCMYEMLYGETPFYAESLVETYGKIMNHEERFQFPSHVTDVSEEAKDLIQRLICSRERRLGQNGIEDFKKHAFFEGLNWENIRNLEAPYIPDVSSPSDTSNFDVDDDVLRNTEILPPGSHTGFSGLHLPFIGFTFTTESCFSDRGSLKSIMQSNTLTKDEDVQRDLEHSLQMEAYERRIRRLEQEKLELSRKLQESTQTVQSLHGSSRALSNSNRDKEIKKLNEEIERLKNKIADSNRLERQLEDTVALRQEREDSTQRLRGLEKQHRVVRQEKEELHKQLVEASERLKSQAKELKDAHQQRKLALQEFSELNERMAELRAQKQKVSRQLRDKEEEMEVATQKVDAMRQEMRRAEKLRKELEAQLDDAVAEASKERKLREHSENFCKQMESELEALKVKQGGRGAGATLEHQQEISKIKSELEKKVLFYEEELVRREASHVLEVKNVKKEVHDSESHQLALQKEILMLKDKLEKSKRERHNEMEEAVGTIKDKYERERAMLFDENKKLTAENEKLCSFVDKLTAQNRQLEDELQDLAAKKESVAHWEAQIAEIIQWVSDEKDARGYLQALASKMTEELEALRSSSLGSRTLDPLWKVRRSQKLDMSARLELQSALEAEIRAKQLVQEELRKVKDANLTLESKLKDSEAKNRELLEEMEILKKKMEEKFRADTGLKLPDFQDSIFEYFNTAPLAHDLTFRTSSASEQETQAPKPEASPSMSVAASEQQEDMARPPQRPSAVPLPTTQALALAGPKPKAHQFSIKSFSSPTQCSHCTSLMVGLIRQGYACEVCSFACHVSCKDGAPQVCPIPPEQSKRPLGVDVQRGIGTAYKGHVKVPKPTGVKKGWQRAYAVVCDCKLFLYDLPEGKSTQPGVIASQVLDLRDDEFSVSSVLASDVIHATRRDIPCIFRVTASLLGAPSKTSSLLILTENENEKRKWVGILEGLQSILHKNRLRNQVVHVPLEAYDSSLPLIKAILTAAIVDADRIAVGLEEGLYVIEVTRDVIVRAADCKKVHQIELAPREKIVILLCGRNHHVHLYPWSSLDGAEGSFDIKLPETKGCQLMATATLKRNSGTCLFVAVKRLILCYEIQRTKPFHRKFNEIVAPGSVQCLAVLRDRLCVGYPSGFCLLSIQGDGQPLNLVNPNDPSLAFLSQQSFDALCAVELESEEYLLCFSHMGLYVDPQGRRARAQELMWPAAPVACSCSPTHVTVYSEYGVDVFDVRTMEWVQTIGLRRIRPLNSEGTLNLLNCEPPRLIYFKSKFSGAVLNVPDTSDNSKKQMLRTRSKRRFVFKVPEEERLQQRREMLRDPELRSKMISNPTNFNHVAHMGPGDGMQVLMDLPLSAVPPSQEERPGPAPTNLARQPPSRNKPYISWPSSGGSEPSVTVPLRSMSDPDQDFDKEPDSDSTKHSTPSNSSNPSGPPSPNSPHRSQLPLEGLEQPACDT
Calcium/calmodulin-dependent protein kinase type II subunit alpha, sequence (Q9UQM7 whole entry): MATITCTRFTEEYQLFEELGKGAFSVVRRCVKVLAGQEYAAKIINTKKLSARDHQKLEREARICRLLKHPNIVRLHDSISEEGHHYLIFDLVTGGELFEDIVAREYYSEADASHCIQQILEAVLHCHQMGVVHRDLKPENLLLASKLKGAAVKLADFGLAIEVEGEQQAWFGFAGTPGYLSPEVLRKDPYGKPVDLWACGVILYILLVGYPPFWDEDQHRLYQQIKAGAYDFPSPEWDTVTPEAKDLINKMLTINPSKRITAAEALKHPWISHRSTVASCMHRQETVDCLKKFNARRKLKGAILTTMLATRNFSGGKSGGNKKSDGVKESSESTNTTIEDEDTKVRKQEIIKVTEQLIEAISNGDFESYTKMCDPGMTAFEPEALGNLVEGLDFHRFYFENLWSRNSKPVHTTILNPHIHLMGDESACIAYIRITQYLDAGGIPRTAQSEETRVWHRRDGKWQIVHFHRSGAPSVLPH

## C[C@@H]1C[C@H]1C(=O)N1CCN(c2cnc(C#N)c(-c3cnn(C)c3)n2)C[C@H]1C
[1]
  IC50: > 100 µM
[2]
  IC50: > 100 µM
[3]
  inhibition: 7%
[4]
  IC50: > 100 µM
[5]
  IC50: > 100 µM
[6]
  IC50: > 100 µM
[7]
  IC50: > 100 µM
[8]
  IC50: > 100 µM
[9]
  IC50: > 100 µM
[10]
  IC50: 5.37 µM
[11]
  IC50: > 100 µM
Homo sapiens [12]
  Ratio IC50: > 373
[13]
  IC50: > 100 µM
Homo sapiens [14]
  inhibition: 10%
[15]
  inhibition: 18%
Rattus norvegicus
  inhibition: 14%
[16]
  inhibition: 7%
Ephrin type-A receptor 5
  IC50: > 100 µM
[17]
  IC50: > 100 µM
[18]
  IC50: > 100 µM
[19]
  inhibition: 1%
[20]
  IC50: > 100 µM
[21]
  IC50: > 100 µM
[22]
  IC50: > 100 µM
[23]
  IC50: > 100 µM
